Data on nine molecules can be found in patent US11713335B2, “Aminocoumarin compounds and methods of their use” (President and Fellows of Harvard College, priority 2018, dated 2023).

Holding throughout (assay type): cell-based
In test [1] the test system is S. aureus RN4220. Description: Minimal inhibitory concentration, S. aureus RN4220. The settings on record: read-out: MIC (μM) S. aureus RN4220. An outline of the steps: (§1)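 MIC, in µM, taken as the lowest compound concentration preventing growth by OD600 after 16 h static incubation at 37 °C. Compound was twofold serially diluted in bacteria grown overnight in LB, or TSA for S. aureus, and diluted 1:100 twice.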

In test [2] the test system is S. aureus MW2. Description: Minimal inhibitory concentration, S. aureus MW2. The conditions noted are these: read-out: MIC (μM) S. aureus MW2 (MRSA). An outline of the steps: as §1
For test [3], the system named is E. cloacae 13047. The test is described as follows: Minimal inhibitory concentration, E. cloacae 13047. The settings on record: read-out: MIC (μM) E. cloacae 13047. An outline of the steps:
as §1

Test [4] deals with A. baumannii 19606. Description: Minimal inhibitory concentration, A. baumannii 19606. The conditions noted are these: read-out: MIC (μM) A. baumannii 19606. The essentials:
as §1

The test system of test [5] is K. pneumoniae 700721. Description: Minimal inhibitory concentration, K. pneumoniae 700721. The settings on record: read-out: MIC (μM) K. pneumoniae 700721. An outline of the steps:
as §1

Test [6] has as its system E. coli MC4100. The test is described as follows: Minimal inhibitory concentration, E. coli MC4100. The settings on record: read-out: MIC (μM) E. coli MC4100 ara+. The essentials: as §1
The test system of test [7] is E. coli 25922. The test is described as follows: Minimal inhibitory concentration, E. coli 25922. The conditions noted are these: read-out: MIC (μM) E. coli 25922. An outline of the steps: as §1
Where [8] appears, read: Staphylococcus aureus, RN4220, 16 h, 16 hour minimal inhibitory concentration at 37° C.
[9] abbreviates: Staphylococcus aureus, MRSA, 16 h.
[10] abbreviates: Enterobacter cloacae, 13047, 16 hour minimal inhibitory concentration at 37° C.
[11] abbreviates: Klebsiella pneumoniae, 700721, 16 hour minimal inhibitory concentration at 37° C.
[12] abbreviates: Staphylococcus aureus, MRSA, 16 h, 16 hour minimal inhibitory concentration at 37° C.
The mark [13] stands for this setting: Acinetobacter baumannii, 19606, 16 h, 16 hour minimal inhibitory concentration at 37° C.
Setting [14] is: Escherichia coli, MC4100, 16 h, 16 hour minimal inhibitory concentration at 37° C.
[15] abbreviates: Escherichia coli, 25922, 16 h, 16 hour minimal inhibitory concentration at 37° C.
The mark [16] stands for this setting: 16 hour minimal inhibitory concentration at 37° C.

Values after ≈ are worked out from the molar mass of the structure shown. Like-named read-outs stand apart in the source and are kept apart here. Bounds are passed on as bounds.

By MIC is commonly meant the smallest concentration in the dilution series that meets the test's criterion for growth inhibition. With `CO[C@@H]1[C@@H](OC(N)=O)[C@@H](O)[C@H](Oc2ccc3c(O)c(NC(=O)c4ccc(F)c(CC=C(C)C)c4)c(=O)oc3c2C)OC1(C)C` [Compound 101], the minimum inhibitory concentration (MIC) in test [1] (setting [8]) was 2 µM (≈ 1.23 µg/mL); in test [2] (setting [9]) it was 1 µM (≈ 0.615 µg/mL); in test [3] (setting [10]), over 100 µM; in test [4] (Acinetobacter baumannii, 19606, 16 hour minimal inhibitory concentration at 37° C.), 41 µM (≈ 25.2 µg/mL); in test [5] (setting [11]) it was 81 µM (≈ 49.8 µg/mL); in test [6] (Escherichia coli, MC4100, 16 hour minimal inhibitory concentration at 37° C.), 20 µM (≈ 12.3 µg/mL). Further, the MIC in test [7] (Escherichia coli, 25922, 16 hour minimal inhibitory concentration at 37° C.) was found to be 20 µM (≈ 12.3 µg/mL).

`CO[C@@H]1[C@@H](OC(=O)c2cc(C)c(C)[nH]2)[C@@H](O)[C@H](Oc2ccc3c(O)c(NC(=O)c4ccc(O)c(CC=C(C)C)c4)c(=O)oc3c2C)OC1(C)C` [Compound 213]: the minimum inhibitory concentration (MIC) in test [1] (Staphylococcus aureus, RN4220, 16 h) was 1.8 µM (≈ 1.24 µg/mL); in test [2] (setting [9]), 0.45 µM (≈ 0.311 µg/mL); in test [3] (Enterobacter cloacae, 13047, 16 h), over 100 µM; in test [4] (Acinetobacter baumannii, 19606, 16 h), 4.5 µM (≈ 3.11 µg/mL); in test [5] (Klebsiella pneumoniae, 700721, 16 h) it was over 100 µM; in test [6] (Escherichia coli, MC4100, 16 h), over 200 µM. For the same molecule, in test [7] (Escherichia coli, 25922, 16 h), the MIC was over 200 µM.

As for `CO[C@@H]1[C@@H](OC(N)=O)[C@@H](O)[C@H](Oc2ccc3c(O)c(NC(=O)c4cccc(-c5cc[nH]n5)c4)c(=O)oc3c2C)OC1(C)C` [Compound 201], the minimum inhibitory concentration (MIC) in test [1] (setting [8]) was 42 µM (≈ 25 µg/mL); in test [2] (setting [12]) it was 42 µM (≈ 25 µg/mL); in test [3] (setting [10]), over 100 µM; in test [4] (setting [13]) it was over 50 µM; in test [5] (setting [11]), over 100 µM; in test [6] (setting [14]), over 200 µM. In addition, the MIC in test [7] (setting [15]) was over 200 µM.

Turning to `C=CCOc1c(NC(=O)c2ccc(O)c(CC=C(C)C)c2)c(=O)oc2c(C)c(O[C@@H]3OC(C)(C)[C@H](OC)[C@@H](OC(N)=O)[C@H]3O)ccc12` [Compound 212], the MIC in test [1] (setting [8]) is over 100 µM; in test [2] (setting [12]), over 100 µM; in test [3] (setting [10]), over 100 µM; in test [4] (setting [13]), over 50 µM; in test [5] (setting [11]), over 100 µM; in test [6] (setting [14]), over 200 µM. Also, the MIC in test [7] (setting [15]) was over 200 µM.

Consider `CO[C@@H]1[C@@H](OC(N)=O)[C@@H](O)[C@H](Oc2ccc3c(O)c(NC(=O)c4ccc(I)c(Oc5ccccc5)c4)c(=O)oc3c2C)OC1(C)C` [Compound 252], for which the minimum inhibitory concentration (MIC) in test [1] (setting [8]) is 2.3 µM (≈ 1.72 µg/mL); in test [2] (setting [12]), 2 µM (≈ 1.49 µg/mL); in test [3] (setting [10]) it was over 100 µM; in test [4] (setting [13]), over 50 µM; in test [5] (setting [11]), 38 µM (≈ 28.4 µg/mL); in test [6] (setting [14]) it was 17 µM (≈ 12.7 µg/mL). In addition, the minimal inhibitory concentration (MIC) in test [7] (setting [15]) was 33 µM (≈ 24.6 µg/mL).

`CO[C@@H]1[C@@H](O)[C@@H](OC(=O)NC(C)C)[C@H](Oc2ccc3c(O)c(NC(=O)c4ccc(O)c(CC=C(C)C)c4)c(=O)oc3c2C)OC1(C)C` [Compound 105]: the MIC in test [1] (setting [16]) is reported as over 100 µM; in test [2] (setting [16]) it was over 100 µM; in test [3] (setting [16]) it was over 100 µM; in test [4] (setting [16]), over 50 µM; in test [5] (setting [16]), over 100 µM; in test [6] (setting [16]) it was over 200 µM. The MIC in test [7] (setting [16]) is over 200 µM.

On to `CO[C@@H]1[C@@H](OC(=O)NC2CCCC2)[C@@H](O)[C@H](Oc2ccc3c(O)c(NC(=O)c4ccc(O)c(CC=C(C)C)c4)c(=O)oc3c2C)OC1(C)C` [Compound 108], for which the minimal inhibitory concentration (MIC) was over 100 µM in test [1] (setting [16]); over 100 µM in test [2] (setting [16]); over 100 µM in test [3] (setting [16]); over 50 µM in test [4] (setting [16]); over 100 µM in test [5] (setting [16]); over 200 µM in test [6] (setting [16]). Besides, in test [7] (setting [16]), the minimal inhibitory concentration (MIC) is over 200 µM.

Take `CO[C@@H]1[C@@H](OC(N)=O)[C@@H](O)[C@H](Oc2ccc3c(O)c(NC(=O)c4ccc(I)c(-c5ccccc5)c4)c(=O)oc3c2C)OC1(C)C` [Compound 227]: the MIC was 4 µM (≈ 2.92 µg/mL) in test [1] (setting [8]); 4 µM (≈ 2.92 µg/mL) in test [2] (setting [12]); over 100 µM in test [3] (setting [10]); over 50 µM in test [4] (setting [13]); 34 µM (≈ 24.8 µg/mL) in test [5] (setting [11]); 9 µM (≈ 6.57 µg/mL) in test [6] (setting [14]). Besides, the MIC in test [7] (setting [15]) is 34 µM (≈ 24.8 µg/mL).

For `CO[C@@H]1[C@@H](OC(N)=O)[C@@H](O)[C@H](Oc2ccc3c(O)c(NC(=O)c4cccc(CN)c4)c(=O)oc3c2C)OC1(C)C` [Compound 206], the MIC in test [1] (setting [8]) was over 100 µM; in test [2] (setting [12]) it was over 100 µM; in test [3] (setting [10]), over 100 µM; in test [4] (setting [13]), over 50 µM; in test [5] (setting [11]), over 100 µM; in test [6] (setting [14]) it was over 200 µM. Further, the MIC in test [7] (setting [15]) was over 200 µM.
